Experimental data from patent US5714483A, “Antitussive” (TORAY Industries, Inc., priority 1992, dated 1998).

Tests used:
capsaicin-induced cough [1] = assay: Capsaicin-induced cough in rats (30 μM capsaicin), plethysmography, Examples 1 and 2; format: in vivo, SD male rats
Experimental: (§1) SD male rats (body weight: 250-350 g) were used under non-anesthesic condition.
(§2) Respiration and cough were measured by plestimography. The body plestimograph used has a plastic cylinder having a diameter of 7.5 cm and a length of 15 cm, and consists of a cylindrical part in which the body of the rat is inserted and a cap part which covers the head. In the upper portion of the cylinder, a vent was formed so as to connect a respiration flow meter. To tightly close the cylinder, a collar made of rubber or celluloid was put on the neck of the rat. In the cap part, an inlet for introducing capsaicin and a ventilating hole were formed. The respiration of the rats was measured by measuring the movement of the thorax due to the respiration in terms of the change in the inner volume of the cylinder by the respiration flow meter. […] This large change is distinguished from the normal respiration and measured by the respiration flow meter. The number of this large change was measured, which is defined as the number of cough.
(§3) Capsaicin (30 μM) was converted to mist by ultrasonic nebulizer and the mist was sent by an artificial respirator into the cap covering the head of the rat through a silicone tube, thereby inducing cough. Capsaicin was transferred by the artificial respirator for inhalation at a dose of 20 ml/time and at a rate of 30 times/min.
The rats were made to inhale capsaicin for 5 minutes at 15 minutes before the administration of the test compound. Induction of cough was confirmed during the inhalation of capsaicin. The rats were made to inhale capsaicin for 5 minutes at 15, 60 and 120 minutes after administration of the compound, and the number of induced cough was measured during this period. The antitussive effect was evaluated in terms of the suppression rate, that is, the ratio of the number of cough after administration of the test compound to the number of cough before administration of the compound. The measured suppression rates were compared using Mann Whiteny U-test. If there is a difference at significant level (P<0.05), the difference was evaluated as significant. Capsaicin was dissolved in 10% ethanol and 10% Tween 80 and diluted with saline. The test compound was dissolved in saline. In any case, the test compound was intraperitoneally administered.

capsaicin-induced cough [2] = assay: Capsaicin-induced cough in rats (60 μM capsaicin), ED50, Example 3; format: in vivo, SD male rats; conditions: Rattus norvegicus, ip, 0.5 h; i.p.; capsaicin 60 μM, 30 minutes after administration; read-out: ED50 (dose at which the number of cough is suppressed to half)
Experimental: as §1, §2
as §3, with “(60” for “(30”, “10” for “20”, “70” for “30”
The rats were made to inhale capsaicin for 5 minutes at 270 minutes before the administration of the test compound. Induction of cough was confirmed during the inhalation of capsaicin. The rats were made to inhale capsaicin for 5 minutes at 30 minutes after administration of the test compound, and the number of induced cough during this period was measured. The antitussive effect was evaluated in terms of the suppression rate, that is, the ratio of the number of cough after administration of the test compound to the number of cough before administration of the test compound. Capsaicin was dissolved in saline. The test compounds were dissolved in aqueous 10% DMSO solution. In any case, the test compounds were intraperitoneally administered. The effectiveness of each of the test compounds is shown in terms of ED50 value which means the dose at which the number of cough is suppressed to half.

Question: Oc1ccc2c3c1O[C@H]1c4[nH]c5ccccc5c4C[C@@]4(O)[C@@H](C2)N(CC2CC2)CC[C@]314 [Compound 1, 17-cyclopropylmethyl-6,7-didehydro-4,5α-epoxy-3,14β-dihydroxy-6,7,2',3'-indolomorphinan] was tested. Which “dose-dependence of antitussive effect” value (capsaicin-induced cough [1]; 0.03 mg/kg to 1 mg/kg, i.p., 15 minutes after administration) did it give?
Answer: dose-dependent antitussive effect

Question: What about the antitussive effect (capsaicin-induced cough [1]; 1 mg/kg, i.p.) of the same compound?
Answer: a significant antitussive effect was observed

Question: What about the “peak of the antitussive effect (time after administration)” value (capsaicin-induced cough [1]; 1 mg/kg, i.p.) of the same compound?
Answer: 15 min

Question: And the “antitussive effect at 120 minutes compared with saline group” value (capsaicin-induced cough [1]; 1 mg/kg, i.p., 120 minutes after administration, vs saline group)?
Answer: a significant antitussive effect was observed even 120 minutes after the administration

Question: What about the “antitussive effect compared with morphine (0.3 mg/kg)” value (capsaicin-induced cough [1]; Compound 1 1 mg/kg vs morphine 0.3 mg/kg, i.p., 15 minutes after administration) of the same compound?
Answer: substantially identical to that by morphine (0.3 mg/kg)

Question: For Oc1ccc2c3c1O[C@H]1c4[nH]c5c6c(ccc5c4C[C@@]4(O)[C@@H](C2)N(CC2CC2)CC[C@]314)CCCC6 [Compound 2, 17-cyclopropylmethyl-6,7-didehydro-4,5α-epoxy-3,14β-dihydroxy-6',7'-cyclohexeno-6,7,2',3'-indolomorphinan], which ED50 (capsaicin-induced cough [2]) is on record?
Answer: 0.0395 mg/kg

Question: Which ED50 (capsaicin-induced cough [2]) does the source give for Oc1ccc2c3c1O[C@H]1c4nc5ccccc5cc4C[C@@]4(O)[C@@H](C2)N(CC2CC2)CC[C@]314 [Compound 4, 17-cyclopropylmethyl-6,7-didehydro-4,5α-epoxy-3,14β-dihydroxy-6,7,2',3'-quinolinomorphinan] here?
Answer: 0.984 mg/kg

Question: For Oc1ccc2c3c1O[C@H]1c4[nH]c5c(ccc6cnccc65)c4C[C@@]4(O)[C@@H](C2)N(CC2CC2)CC[C@]314 [Compound 5, 17-cyclopropylmethyl-6,7-didehydro-4,5α-epoxy-3,14β-dihydroxy-[6',7'-b]-pyrido-6,7,2',3'-indolomorphinan], which ED50 (capsaicin-induced cough [2]) is on record?
Answer: 0.0797 mg/kg

Question: For COc1ccc2c3c1O[C@H]1c4[nH]c5c(ccc6cnccc65)c4C[C@@]4(O)[C@@H](C2)N(CC2CC2)CC[C@]314 [Compound 6, 17-cyclopropylmethyl-6,7-didehydro-4,5α-epoxy-14β-hydroxy-3-methoxy-[6',7'-b]-pyrido-6,7,2',3'-indolomorphinan], which ED50 (capsaicin-induced cough [2]) is on record?
Answer: 0.0413 mg/kg

Question: For COc1ccc2c3c1O[C@H]1c4[nH]c5ccccc5c4C[C@@]4(O)[C@@H](C2)N(CC2CC2)CC[C@]314 [Compound 7, 17-cyclopropylmethyl-6,7-didehydro-4,5α-epoxy-14β-hydroxy-3-methoxy-6,7,2',3'-indolomorphinan], which ED50 (capsaicin-induced cough [2]) is on record?
Answer: 0.0639 mg/kg

Question: COc1cc(CNC(=O)CCCC/C=C/C(C)C)ccc1O [capsaicin, reference compound] was tested. Which “number of cough induced by inhalation of capsaicin” value (capsaicin-induced cough [1]; capsaicin 30 μM mist, 5 min inhalation) did it give?
Answer: 22.5±1.2 times/5 minutes
